Columns and labels:
cocklebur = test: Test B pre/postemergence cocklebur; assay type: in vivo, Xanthium strumarium
Method in brief: (§1)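 Test chemicals in a non-phytotoxic solvent mixture with surfactant were sprayed preemergence onto planted seeds and postemergence onto plants 2 to 18 cm tall (1- to 4-leaf stage). After twelve to sixteen days in a greenhouse, injury was visually rated against untreated controls from 0 (no effect) to 10 (complete control).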

crabgrass = test: Test B pre/postemergence crabgrass; assay type: in vivo, Digitaria sanguinalis
Method in brief: as §1

wheat = test: Test B pre/postemergence wheat; assay type: in vivo, Triticum aestivum
Method in brief: as §1

wild oat = test: Test B pre/postemergence wild oat; assay type: in vivo, Avena fatua
Method in brief: as §1

[1] = Postemergence, Rate 250 g/ha, scale 0 to 10, 0 no effect, 10 complete control
[2] = Postemergence, Rate 1000 g/ha, scale 0 to 10 (0 no effect, 10 complete control)
[3] = Preemergence, Rate 125 g/ha, scale 0 to 10 (0 no effect, 10 complete control)
[4] = Preemergence, Rate 250 g/ha, scale of 0 to 10 where 0 is no effect and 10 is complete control
[5] = Preemergence, Rate 500 g/ha, scale 0 (no effect) to 10 (complete control)
[6] = Rate 125 g/ha, Postemergence, scale 0 to 10, 0 no effect, 10 complete control
[7] = Rate 500 g/ha, Postemergence, 0 to 10 scale (0 no effect, 10 complete control)
[8] = Rate 1000 g/ha, Preemergence, scale 0 to 10 (0 no effect, 10 complete control)
[9] = Postemergence, Rate 62 g/ha, scale 0 to 10, 0 is no effect, 10 is complete control
[10] = Preemergence, Rate 62 g/ha, scale 0 to 10, 0 is no effect, 10 is complete control
[11] = Preemergence, Rate 31 g/ha, visual rating, scale 0 to 10 (0 no effect, 10 complete control)
[12] = Rate 31 g/ha, Postemergence, scale 0 to 10

## CCN(CC)C(=O)n1oc(=O)n(-c2ccc(OC)cc2)c1=O [Compound 1]
cocklebur; [1]
  Cocklebur plant response rating: 0
cocklebur; [2]
  Cocklebur plant response rating: 0
cocklebur; [3]
  Plant response rating, Cocklebur: 0
cocklebur; [4]
  Plant response rating, Cocklebur: 0
cocklebur; [5]
  Cocklebur plant response rating: 0
cocklebur; [6]
  Cocklebur plant response rating: 0
cocklebur; [7]
  Cocklebur plant response rating: 0
crabgrass; [1]
  Crabgrass plant response rating: 5
crabgrass; [2]
  Crabgrass plant response rating: 9
crabgrass; [3]
  Plant response rating, Crabgrass: 4
crabgrass; [4]
  Plant response rating, Crabgrass: 8
crabgrass; [5]
  Crabgrass plant response rating: 8
crabgrass; [6]
  Crabgrass plant response rating: 0
crabgrass; [7]
  Crabgrass plant response rating: 8
crabgrass; [8]
  Plant response rating, Crabgrass: 9
wheat; [1]
  Wheat plant response rating: 0
wheat; [2]
  Wheat plant response rating: 0
wheat; [3]
  Plant response rating, Wheat: 0
wheat; [4]
  Plant response rating, Wheat: 0
wheat; [5]
  Wheat plant response rating: 0
wheat; [6]
  Wheat plant response rating: 0
wheat; [8]
  Plant response rating, Wheat: 0
Wild oat; [1]
  Wild oats plant response rating: 0
Wild oat; [2]
  Wild oats plant response rating: 0
Wild oat; [3]
  Plant response rating, Wild oats: 0
Wild oat; [4]
  Plant response rating, Wild oats: 0
Wild oat; [5]
  Wild oats plant response rating: 0
Wild oat; [6]
  Wild oats plant response rating: 0
Wild oat; [8]
  Plant response rating, Wild oats: 2

## COc1ccc(-n2c(=O)on(C(=O)N(C3=CCOCC3)C(C)C)c2=O)cc1 [Compound 6]
cocklebur; [1]
  Cocklebur plant response rating: 0
cocklebur; [2]
  Cocklebur plant response rating: 0
cocklebur; [3]
  Plant response rating, Cocklebur: 0
cocklebur; [4]
  Plant response rating, Cocklebur: 0
cocklebur; [5]
  Cocklebur plant response rating: 0
cocklebur; [6]
  Cocklebur plant response rating: 0
cocklebur; [7]
  Cocklebur plant response rating: 0
cocklebur; [8]
  Plant response rating, Cocklebur: 2
crabgrass; [1]
  Crabgrass plant response rating: 2
crabgrass; [2]
  Crabgrass plant response rating: 7
crabgrass; [3]
  Plant response rating, Crabgrass: 7
crabgrass; [5]
  Crabgrass plant response rating: 9
crabgrass; [6]
  Crabgrass plant response rating: 0
crabgrass; [7]
  Crabgrass plant response rating: 5
crabgrass; [8]
  Plant response rating, Crabgrass: 10
wheat; [1]
  Wheat plant response rating: 0
wheat; [2]
  Wheat plant response rating: 0
wheat; [3]
  Plant response rating, Wheat: 0
wheat; [4]
  Plant response rating, Wheat: 0
wheat; [5]
  Wheat plant response rating: 0
wheat; [6]
  Wheat plant response rating: 0
wheat; [8]
  Plant response rating, Wheat: 3
Wild oat; [1]
  Wild oats plant response rating: 0
Wild oat; [2]
  Wild oats plant response rating: 4
Wild oat; [3]
  Plant response rating, Wild oats: 0
Wild oat; [4]
  Plant response rating, Wild oats: 0
Wild oat; [5]
  Wild oats plant response rating: 3
Wild oat; [6]
  Wild oats plant response rating: 0
Wild oat; [8]
  Plant response rating, Wild oats: 6

## CC(C)N(C(=O)n1oc(=O)n(-c2cc(Cl)cc(Cl)c2)c1=O)C1=CCOCC1 [Compound 9]
cocklebur; [1]
  Cocklebur plant response rating: 0
cocklebur; [2]
  Cocklebur plant response rating: 4
cocklebur; [3]
  Plant response rating, Cocklebur: 0
cocklebur; [4]
  Plant response rating, Cocklebur: 0
cocklebur; [5]
  Cocklebur plant response rating: 0
cocklebur; [6]
  Cocklebur plant response rating: 0
cocklebur; [7]
  Cocklebur plant response rating: 0
cocklebur; [8]
  Plant response rating, Cocklebur: 0
crabgrass; [1]
  Crabgrass plant response rating: 0
crabgrass; [2]
  Crabgrass plant response rating: 0
crabgrass; [3]
  Plant response rating, Crabgrass: 3
crabgrass; [4]
  Plant response rating, Crabgrass: 0
crabgrass; [5]
  Crabgrass plant response rating: 3
crabgrass; [6]
  Crabgrass plant response rating: 0
crabgrass; [7]
  Crabgrass plant response rating: 0
crabgrass; [8]
  Plant response rating, Crabgrass: 3
wheat; [1]
  Wheat plant response rating: 0
wheat; [2]
  Wheat plant response rating: 0
wheat; [3]
  Plant response rating, Wheat: 0
wheat; [4]
  Plant response rating, Wheat: 0
wheat; [5]
  Wheat plant response rating: 0
wheat; [6]
  Wheat plant response rating: 0
wheat; [8]
  Plant response rating, Wheat: 0
Wild oat; [1]
  Wild oats plant response rating: 0
Wild oat; [2]
  Wild oats plant response rating: 0
Wild oat; [3]
  Plant response rating, Wild oats: 0
Wild oat; [4]
  Plant response rating, Wild oats: 0
Wild oat; [5]
  Wild oats plant response rating: 0
Wild oat; [6]
  Wild oats plant response rating: 0
Wild oat; [8]
  Plant response rating, Wild oats: 0

## Cc1ccccc1-n1c(=O)on(C(=O)N(C2=CCOCC2)C(C)C)c1=O [Compound 10]
cocklebur; [9]
  Cocklebur plant response rating: 0
cocklebur; [1]
  Cocklebur plant response rating: 1
cocklebur; [10]
  Plant response rating, Cocklebur: 0
cocklebur; [3]
  Plant response rating, Cocklebur: 0
cocklebur; [5]
  Cocklebur plant response rating: 0
cocklebur; [6]
  Cocklebur plant response rating: 0
cocklebur; [7]
  Cocklebur plant response rating: 3
crabgrass; [9]
  Crabgrass plant response rating: 3
crabgrass; [1]
  Crabgrass plant response rating: 9
crabgrass; [10]
  Plant response rating, Crabgrass: 2
crabgrass; [3]
  Plant response rating, Crabgrass: 7
crabgrass; [5]
  Crabgrass plant response rating: 7
crabgrass; [6]
  Crabgrass plant response rating: 6
crabgrass; [7]
  Crabgrass plant response rating: 9
wheat; [9]
  Wheat plant response rating: 0
wheat; [1]
  Wheat plant response rating: 0
wheat; [10]
  Plant response rating, Wheat: 0
wheat; [3]
  Plant response rating, Wheat: 0
wheat; [4]
  Plant response rating, Wheat: 0
wheat; [5]
  Wheat plant response rating: 0
wheat; [6]
  Wheat plant response rating: 0
Wild oat; [9]
  Wild oats plant response rating: 0
Wild oat; [1]
  Wild oats plant response rating: 0
Wild oat; [3]
  Plant response rating, Wild oats: 0
Wild oat; [4]
  Plant response rating, Wild oats: 0
Wild oat; [5]
  Wild oats plant response rating: 0
Wild oat; [6]
  Wild oats plant response rating: 0

## CC(C)N(C(=O)n1oc(=O)n(-c2ccc(OC(F)(F)F)cc2)c1=O)C1=CCOCC1 [Compound 13]
cocklebur; [1]
  Cocklebur plant response rating: 0
cocklebur; [2]
  Cocklebur plant response rating: 0
cocklebur; [3]
  Plant response rating, Cocklebur: 0
cocklebur; [4]
  Plant response rating, Cocklebur: 0
cocklebur; [5]
  Cocklebur plant response rating: 0
cocklebur; [6]
  Cocklebur plant response rating: 0
cocklebur; [7]
  Cocklebur plant response rating: 0
crabgrass; [1]
  Crabgrass plant response rating: 5
crabgrass; [2]
  Crabgrass plant response rating: 9
crabgrass; [3]
  Plant response rating, Crabgrass: 2
crabgrass; [4]
  Plant response rating, Crabgrass: 5
crabgrass; [5]
  Crabgrass plant response rating: 5
crabgrass; [6]
  Crabgrass plant response rating: 1
crabgrass; [7]
  Crabgrass plant response rating: 9
crabgrass; [8]
  Plant response rating, Crabgrass: 8
wheat; [1]
  Wheat plant response rating: 0
wheat; [2]
  Wheat plant response rating: 0
wheat; [3]
  Plant response rating, Wheat: 0
wheat; [4]
  Plant response rating, Wheat: 0
wheat; [5]
  Wheat plant response rating: 0
wheat; [6]
  Wheat plant response rating: 0
wheat; [8]
  Plant response rating, Wheat: 0
Wild oat; [1]
  Wild oats plant response rating: 0
Wild oat; [2]
  Wild oats plant response rating: 2
Wild oat; [3]
  Plant response rating, Wild oats: 0
Wild oat; [4]
  Plant response rating, Wild oats: 0
Wild oat; [5]
  Wild oats plant response rating: 2
Wild oat; [6]
  Wild oats plant response rating: 0
Wild oat; [8]
  Plant response rating, Wild oats: 7

## CCN(C(=O)n1oc(=O)n(-c2ccc(C)cc2C)c1=O)C1CCCCC1 [Compound 26]
cocklebur; [9]
  Cocklebur plant response rating: 0
cocklebur; [1]
  Cocklebur plant response rating: 0
cocklebur; [11]
  Cocklebur plant response rating: 0
cocklebur; [10]
  Plant response rating, Cocklebur: 0
cocklebur; [3]
  Plant response rating, Cocklebur: 0
cocklebur; [4]
  Plant response rating, Cocklebur: 0
cocklebur; [12]
  Cocklebur plant response rating: 0
cocklebur; [6]
  Cocklebur plant response rating: 0
crabgrass; [9]
  Crabgrass plant response rating: 0
crabgrass; [1]
  Crabgrass plant response rating: 1
crabgrass; [11]
  Crabgrass plant response rating: 0
crabgrass; [10]
  Plant response rating, Crabgrass: 0
crabgrass; [3]
  Plant response rating, Crabgrass: 0
crabgrass; [4]
  Plant response rating, Crabgrass: 3
crabgrass; [12]
  Crabgrass plant response rating: 0
crabgrass; [6]
  Crabgrass plant response rating: 0
wheat; [9]
  Wheat plant response rating: 0
wheat; [1]
  Wheat plant response rating: 0
wheat; [11]
  Wheat plant response rating: 0
wheat; [10]
  Plant response rating, Wheat: 0
wheat; [3]
  Plant response rating, Wheat: 0
wheat; [4]
  Plant response rating, Wheat: 0
wheat; [6]
  Wheat plant response rating: 0
Wild oat; [9]
  Wild oats plant response rating: 0
Wild oat; [1]
  Wild oats plant response rating: 0
Wild oat; [11]
  Wild oats plant response rating: 0
Wild oat; [3]
  Plant response rating, Wild oats: 0
Wild oat; [4]
  Plant response rating, Wild oats: 0
Wild oat; [6]
  Wild oats plant response rating: 0

## COc1ccc(-n2c(=O)on(C(=O)N(c3ccc(F)cc3)C(C)C)c2=O)c(C)c1 [Compound 35]
cocklebur; [9]
  Cocklebur plant response rating: 0
cocklebur; [1]
  Cocklebur plant response rating: 4
cocklebur; [10]
  Plant response rating, Cocklebur: 0
cocklebur; [3]
  Plant response rating, Cocklebur: 0
cocklebur; [4]
  Plant response rating, Cocklebur: 0
cocklebur; [5]
  Cocklebur plant response rating: 0
cocklebur; [6]
  Cocklebur plant response rating: 2
cocklebur; [7]
  Cocklebur plant response rating: 5
crabgrass; [9]
  Crabgrass plant response rating: 0
crabgrass; [1]
  Crabgrass plant response rating: 1
crabgrass; [10]
  Plant response rating, Crabgrass: 3
crabgrass; [3]
  Plant response rating, Crabgrass: 3
crabgrass; [4]
  Plant response rating, Crabgrass: 6
crabgrass; [5]
  Crabgrass plant response rating: 10
crabgrass; [6]
  Crabgrass plant response rating: 0
crabgrass; [7]
  Crabgrass plant response rating: 7
wheat; [9]
  Wheat plant response rating: 0
wheat; [1]
  Wheat plant response rating: 0
wheat; [10]
  Plant response rating, Wheat: 0
wheat; [3]
  Plant response rating, Wheat: 0
wheat; [4]
  Plant response rating, Wheat: 0
wheat; [5]
  Wheat plant response rating: 0
wheat; [6]
  Wheat plant response rating: 0
Wild oat; [9]
  Wild oats plant response rating: 0
Wild oat; [1]
  Wild oats plant response rating: 0
Wild oat; [3]
  Plant response rating, Wild oats: 0
Wild oat; [4]
  Plant response rating, Wild oats: 2
Wild oat; [5]
  Wild oats plant response rating: 6
Wild oat; [6]
  Wild oats plant response rating: 0
